# Reference: patent EP2050455B1, “Compounds leading to an increase of the IL-12/IL-10 ratio and their use for therapy of infectious and proliferative diseases” (priority 2007, dated 2009)
# Key:
# [1] = tested on: iMoDC; experiment: Phenotype modification: CD14 versus HLA-DR expression and phase contrast morphology; format: cell-based, Human; details: non-toxic concentrations, 20-48 hours (Example 3)
# Protocol: Human peripheral blood monocytes were prepared by various well-established techniques. • (1) Blood drawing was carried out in the presence of the anticoagulant EDTA, separation of the nucleated cells by combined density/velocity gradient centrifugation, followed by selective adherence in the culture for one hour. The non-attached cells were washed off and the remaining population of highly enriched monocytes was further cultured. • (2) Alternatively, blood cells were recovered by leukapheresis, followed by counterflow elutriation. The highly enriched monocyte fraction was either freeze protected or taken into culture. Cells were cultured in a humidified incubator (37°C, 5% CO2).
# [2] = tested on: MoDC; experiment: Surface marker expression / maturation of MoDC by flow cytometry; format: cell-based, Human
# Protocol: (§1) The number of living cells was measured by Casy-technology. […] They were analysed for expression of CD14 versus HLA-DR. Morphology was assessed by phase contrast microscopy. […] MoDC were cultured in serum containing media (A) or serum free (B). They were left untreated (black), treated with maturation cocktail as positive control (green), or with 10 nM OspA-LP (red) for 48 hours and analysed by flow cytometry for viability or the expression of CD14, CD1a, CD86/CD80 double positive cells, CD83 and CD197 (CCR7). Data were collected from 4 independent experiments. The results are means ±SD. […] After another 24 hours the cells were analysed for IL-10 production by ELISPOT assay. […] The resulting values are given numbers of spots. […] All LP treated MoDC (red) were compared with untreated MoDC (black). The blue line represents 100 spots per 5x10^4 MoDC. […] They were analysed for IL-10 (left) and IL-12p70 production (right). Shown are 3 independent experiments using cells from different healthy donors. Compared to the untreated controls (black), IL-10 production is not depressed by LPS R60/IFN-γ (red). […] (A) number of cytokine producing cells: IL-10 (black); IL-12p70 (red). (B) ratio of IL-12p70/IL-10 producing cells. […] The resulting cells were analysed for the surface expression of both CD80 and CD86 in dot plot analyses (A), and CD83 histogram overlay (B).
# Cytokines GM-CSF (800 IU/ml; Bayer Healthcare Pharmaceutical) plus GMP-certified IL-4 (500 IU/ml; CellGenix, Freiburg, Germany) were added to induce transdifferentiation from monocytes to immature monocyte-derived dendritic cells (iMoDC). After 5-7 days of culture iMoDC were analysed for the surface markers CD1a, CD209 und CD14 using the antibodies listed in the following table. Table
# Maturation signals were added, including signals to trigger polarisation. The cells were further cultured for another 2 days.
# Alternatively, the maturation phase was split into individual steps: • Step 1: TLR agonists lipopeptides • Step 2: presence of the previous inducers, TLR agonists lipopolysaccharide added in the presence of IFN-γ.
# [3] = tested on: IL-10 production of MoDC; experiment: IL-10 production by ELISPOT assay (indicator culture); format: cell-based, Human
# Protocol: as §1
# (§2) This culture imitates the fate of DC after injecting them into an organism and is designed to test the actual production and release of IL-12 and IL-10 during this phase. This is tested by the well-known ELISPOT-assay. For this phase the previous inducers were either sustained or washed out. Also, further inducers were added. Number of spots as well as the intensity of spots could be read out. Therefore, this setup does more realistically reflect the actual functional state of DC at the time of injection and thereafter.
# [4] = tested on: IL-12p70 production of MoDC; experiment: IL-12p70 production by ELISPOT assay (indicator culture); format: cell-based, Human
# Protocol: as §1, §2
# [5] = tested on: MoDC; details: Nishiguchi et al. (2001); cited from earlier work
# [6] = non-toxic concentrations, 20-48 hours (Example 3)
substance,measurement,setting,value
FSL-1,cell phenotype,[1],modification
same,"Maturation of MoDC (surface expression of CD80, CD86, CD83)","[2]; FSL-1 LP 1 nM, LPS R60 1 µg/ml / IFN-γ 500 IU/ml, single or sequential (Figure 10)",only incomplete maturation
same,"Costimulatory signals (CD80, CD86)",[2]; [6],upregulated
same,maturation as measured by expression of CD83,[2]; [6],No complete maturation
same,IL-10-secretion of immature DC,[3]; ELISPOT,down-regulation
same,IL-10 production,"[3]; OspA-LP 10 nM, FSL-1 1 nM, FSL-2 1 nM, alone or combined with IFN-γ (500 IU/ml), 24 hours, vs untreated (Figure 6)",downregulated
same,IL-10 secreting cells,"[3]; non-toxic concentrations, 20-48 hours, dose-dependent, donor-independent (Example 3)",decrease
same,IL-12p70 production,"[4]; OspA-LP 10 nM, FSL-1 1 nM, FSL-2 1 nM, alone or combined with IFN-γ (500 IU/ml), 24 hours (Figure 6)",remains extremely low
same,production of IL-12,[4]; immature DC,No effect
same,IL-12p70 production,[4]; [6],only poorly stimulated
same,Maturation of DC,[5],incompletely
